Assay results: patent US8574831B2, “Mutational profiles in HIV-1 reverse transcriptase correlated with phenotypic drug resistance” (Virco N.V., priority 2000, dated 2013)

What was measured:
[1] = system: HIV with mutations in the reverse transcriptase gene sequence; assay: Phenotypic fold resistance to reverse transcriptase inhibitors, RT mutations at positions 101, 103, 181, 190 (Examples 4-7); assay type: cell-based, HIV-1
Protocol: As is the case with the genotyping assays, the recombinant virus assay starts with the amplification of viral target sequences by means of PCR. The amplicons are incorporated into a proviral laboratory clone with sequences homologous to those present in the amplicon deleted. This generates a stock of chimeric viruses. The viruses are tested for their ability to grow in the presence of different concentrations of drugs. Results are obtained by calculating IC50 values for each inhibitor and by reporting the results as IC50 values, expressed in μM concentrations, or by computing the ratio of the IC50 values found for the chimeric virus to the IC50 values found for a wild type susceptible laboratory virus tested in parallel. In the latter case, resistance is expressed as “fold-resistance” compared to a wild-type susceptible HIV-1 strain. In order to meet the need for high-volume testing and a short turn-around time for an individual test, the latest generation of phenotyping assays has undergone further modifications. The use of reporter gene systems for susceptibility testing allows the implementation of laboratory automation and standardization. See Pauwels, et al., J. Virol. Methods 20, 309-321 (1998); Paulous, S., et al., International Workshop on HIV Drug Resistance, Treatment Strategies and Eradication, St. Petersburg, Fla., USA. Abstr. 46 (1997); and Deeks, S. G., et al., 2nd International Workshop on HIV Drug Resistance and Treatment Strategies, Lake Maggiore, Italy. Abstr. 53 (1998).
The methods of monitoring HIV-1 drug resistance, may also be used in combination with phenotypic drug resistance testing of viral isolates. For example, in one embodiment, a phenotypic test is utilized that is based upon the construction of chimeric HIV-1 strains composed of the protease (PR) and reverse transcriptase (RT) gene sequences which are isolated and amplified from the patient viral RNA. These strains may subsequently be recombined inside CD4+ T cells with a standard laboratory isogenic (HXB2) HIV-1 DNA construct from which the PR/RT gene sequences were deleted. The recombinant strains may then be grown in the presence of the above-mentioned antiviral drugs and the susceptibility of the viral isolates may be expressed as fold-change value of the IC50 of the drug on the patient isolates over the IC50 of the drug on a wild-type laboratory reference strain.
(§1) Overview of the mean fold increase in resistance and the effect of the 101 mutations in the HIV reverse transcriptase gene sequence. The fold increase in resistance is calculated from the increase in the mean IC50 of the drug relative to the mean IC50 of the same drug for a wild-type reference laboratory HIV-1 strain. The effect of the mutations was investigated on Nevirapine, Delavirdine and Efavirenz.
as §1, with “103” for “101”, “strain.” for “strain. The effect of the mutations was investigated on Nevirapine, Delavirdine and Efavirenz.”
as §1, with “181” for “101”, “strain.” for “strain. The effect of the mutations was investigated on Nevirapine, Delavirdine and Efavirenz.”
as §1, with “190” for “101”, “strain.” for “strain. The effect of the mutations was investigated on Nevirapine, Delavirdine and Efavirenz.”

[2] = system: HIV-1 HXB2-D variants with site-directed RT mutations; assay: MT-4 cell CPE protection assay, HIV-1 variants constructed by site-directed mutagenesis (Example 2); assay type: cell-based
Protocol: Mutations in the RT coding region were created by site-directed mutagenesis of a wild-type HXB2-D EcoRl-Pstl restriction enzyme fragment, encompassing the HIV-1 pol gene and cloned into pGEM3 (Promega). Single and multiple nucleotide changes were introduced into RT using the EXSITE™ mutagenesis kit (Strategene). All mutant clones were verified by DNA sequence analysis of the entire RT. PCR fragments were prepared from the mutated clones and the altered RT coding regions were transferred into the HIV-1 HXB2-D genetic background by homologous recombination as described above. The susceptibility of these recombinant viruses to nucleoside analogues was subsequently determined by the MT-4 cell CPE protection assay. Id.

Row | SMILES | fold increase in resistance compared to a laboratory reference strain (WT) ([1]; RT genotype 101E) [fold] | fold increase in resistance compared to a laboratory reference strain (WT) ([1]; RT genotype 101H) [fold] | fold increase in resistance compared to a laboratory reference strain (WT) ([1]; RT genotype 101P) [fold] | fold increase in resistance compared to a laboratory reference strain (WT) ([1]; RT genotype 101Q) [fold] | mean fold increase in resistance compared to a laboratory reference strain (WT) ([1]; RT genotype 103H) [fold] | mean fold increase in resistance compared to a laboratory reference strain (WT) ([1]; RT genotype 103N) [fold] | mean fold increase in resistance compared to a laboratory reference strain (WT) ([1]; RT genotype 103R) [fold] | mean fold increase in resistance compared to a laboratory reference strain (WT) ([1]; RT genotype 103S) [fold] | mean fold increase in resistance compared to a laboratory reference strain (WT) ([1]; RT genotype 103T) [fold] | fold increase in resistance compared to a laboratory reference strain (WT) ([1]; RT genotype 181C) [fold] | fold increase in resistance compared to a laboratory reference strain (WT) ([1]; RT genotype 181I) [fold] | fold increase in resistance compared to a laboratory reference strain (WT) ([1]; RT genotype 181S) [fold] | fold increase in resistance compared to a laboratory reference strain (WT) ([1]; RT genotype 190A) [fold] | fold increase in resistance compared to a laboratory reference strain (WT) ([1]; RT genotype 190E) [fold] | fold increase in resistance compared to a laboratory reference strain (WT) ([1]; RT genotype 190Q) [fold] | fold increase in resistance compared to a laboratory reference strain (WT) ([1]; RT genotype 190S) [fold] | fold increase in resistance compared to a laboratory reference strain (WT) ([1]; RT genotype WT (Table 5)) [fold] | mean fold increase in resistance compared to a laboratory reference strain (WT) ([1]; RT genotype WT (Table 6)) [fold] | fold increase in resistance compared to a laboratory reference strain (WT) ([1]; RT genotype WT (Table 7)) [fold] | fold increase in resistance compared to a laboratory reference strain (WT) ([1]; RT genotype WT (Table 8)) [fold] | further results
1 | CC(C)Nc1cccnc1N1CCN(C(=O)c2cc3cc(NS(C)(=O)=O)ccc3[nH]2)CC1 [Delavirdine, delavirdine] | 7.7 | 45.5 | 162.4 | 1.2 | 191.6 | 176.1 | 1.6 | 18.3 | 84.5 | 82.5 | 81.7 | 147.9 | 2.3 | 131.1 | 34.0 | 1.9 | 1.8 | 1.8 | 1.8 | 1.8 | –
2 | O=C1Nc2ccc(Cl)cc2[C@@](C#CC2CC2)(C(F)(F)F)O1 [Efavirenz, efavirenz] | 2.4 | 3.5 | 84.2 | 0.9 | 52.7 | 486.8 | 0.6 | 8.4 | 2.8 | 2.0 | 2.0 | 8.7 | 24.8 | 385.3 | 401.1 | 483.6 | 0.9 | 0.9 | 0.9 | 0.9 | –
3 | Cc1ccnc2c1NC(=O)c1cccnc1N2C1CC1 [Nevirapine, nevirapine] | 4.9 | 24.0 | 53.4 | 1.9 | 69.4 | 48.1 | 1.1 | 45.4 | 43.7 | 56.0 | 63.8 | 82.8 | 60.7 | 40.0 | 52.7 | 75.9 | 1.3 | 1.3 | 1.3 | 1.3 | –
4 | Nc1nc(NC2CC2)c2ncn([C@H]3C=C[C@@H](CO)C3)c2n1 [abacavir, 4-[(2-amino-6-cyclopropyl-amino)-9H-purin-9-yl]-2-cyclopentene-1-methanol] | – | – | – | – | – | – | – | – | – | – | – | – | – | – | – | – | – | – | – | – | susceptibility ([2]; 69S-[S-S] insert plus AZT resistance mutations (210W and 215Y)): decreased susceptibility
5 | O=c1[nH]cnc2c1ncn2[C@H]1CC[C@@H](CO)O1 [ddl, didanosine] | – | – | – | – | – | – | – | – | – | – | – | – | – | – | – | – | – | – | – | – | resistance ([2]; T69A or V75M in a background of AZT mutations): little or no resistance
